Laboratory results as given in patent publication US10030012B2, “Piperidin-1-yl and azepin-1-yl carboxylates as muscarinic M4 receptor agonists” (Heptares Therapeutics Limited, priority 2013, dated 2018).
pEC50: −log10 of the molar value.

Tests used:
[1] = molecular target: human M2 receptor (Homo sapiens (Human), UniProt P08172); assay: In vitro M2 functional assay (intracellular calcium, FLiPR Tetra); format: cell-based; conditions: for M2 EC50 / pEC50: CHOK1 cells stably expressing human M2 receptor and Gα16, calcium flux, No Response = no significant response of calcium flux indicative of agonism; for activation at 10 µM: response at 10 μM compound, relative to an EC100 concentration of acetylcholine, read-out: M2 % RE @ 10 μM; for M2 % RE: relative efficacy to an EC100 concentration of acetylcholine
Chain of human M2 receptor (P08172 whole entry): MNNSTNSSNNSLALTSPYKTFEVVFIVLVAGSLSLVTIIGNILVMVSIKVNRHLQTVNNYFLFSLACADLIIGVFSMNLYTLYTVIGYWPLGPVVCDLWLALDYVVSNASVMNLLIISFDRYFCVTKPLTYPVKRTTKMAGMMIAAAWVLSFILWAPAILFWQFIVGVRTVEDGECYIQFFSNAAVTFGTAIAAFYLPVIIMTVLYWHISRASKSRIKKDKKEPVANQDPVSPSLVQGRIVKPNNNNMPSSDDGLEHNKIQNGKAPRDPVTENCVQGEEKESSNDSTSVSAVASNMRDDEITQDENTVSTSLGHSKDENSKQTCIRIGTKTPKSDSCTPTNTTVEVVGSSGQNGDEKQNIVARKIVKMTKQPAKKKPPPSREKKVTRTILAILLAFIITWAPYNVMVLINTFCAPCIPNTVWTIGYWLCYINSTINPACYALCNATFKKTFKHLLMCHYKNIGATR
Procedure: (§1) In Vitro M4 &M2 Functional Assay
(§2) The functional activity of compounds at the M4 and M2 receptors was determined by measuring changes in the level of intracellular calcium ions caused by signalling cascades mediated by the receptor. Intracellular Calcium levels were measured using a calcium sensitive fluorescent dye, calcium 5 (Molecular Devices) The changes in fluorescence were monitored by a fluorescent imager, FLiPR Tetra (Molecular devices). Increases in intracellular calcium were readily detected upon activation of both receptors by the muscarinic receptor agonist Acetylcholine.
(§3) CHOK1 cells stably expressing human M4 or M2 receptor and co-expressing the accessory g-protein Gα16 were routinely grown as monolayers in Hams-F12 medium (Invitrogen) supplemented with 10% foetal bovine serum (FBS) (Hyclone), 500 ug/mL Geneticin and 250 ug/mL zeocin (both invitrogen) in 5% CO2 at 37° C. Once confluent is cells cryopreserved by freezing at −186° C. in freezing solution (90% FBS 10% DMSO) (Sigma-Aldrich Co.). Twenty-four hours prior to testing cells resuscitated and freezing media removed via centrifugation, cells then seeded in a black walled clear bottom 384 well plates (Corning) at a density of 15,000 cells/well in Hams F12 media supplemented with 10% FBS. On the day of assay, growth media was removed and replaced with 63 μl of Calcium 5 dye solution (Molecular Devices) in assay buffer (HBSS, 20 mM HEPES, 0.1% BSA, 1 mM Probenecid pH7.4 (Sigma-Aldrich Co.)) per well (each vial of Calcium 5 resuspended in 27 mL of assay buffer). Cells were then incubated for 45 minutes at 37° C., 5% CO2. Compound was serially diluted in DMSO (log/half log) before being diluted 1:20 with assay buffer. 7 μl of compound diluted in assay buffer was then added to cells on FLiPR tetra and fluorescence intensity measured for 5 minutes. EC50 values for compounds were determined from ten point half log scale dose-response studies and represent the concentration of compound required to […] maximal response. Curves were generated using the average of duplicate wells for each data point and analyzed using non-linear regression of four parameter dose response. Percentage Relative efficacy (RE) to an EC100 concentration of acetylcholine was reported for all compounds. The results are set out in Table 3 below in which the term “No Response” means that there was no significant response of calcium flux in the assay indicative of agonism.

[2] = molecular target: human M4 receptor (Homo sapiens (Human), UniProt P08173); assay: In vitro M4 functional assay (intracellular calcium, FLiPR Tetra); format: cell-based; conditions: for pEC50: CHOK1 cells stably expressing human M4 receptor and Gα16, calcium flux; for Emax: relative efficacy to an EC100 concentration of acetylcholine, read-out: M4 % RE
Chain of human M4 receptor (P08173 whole entry): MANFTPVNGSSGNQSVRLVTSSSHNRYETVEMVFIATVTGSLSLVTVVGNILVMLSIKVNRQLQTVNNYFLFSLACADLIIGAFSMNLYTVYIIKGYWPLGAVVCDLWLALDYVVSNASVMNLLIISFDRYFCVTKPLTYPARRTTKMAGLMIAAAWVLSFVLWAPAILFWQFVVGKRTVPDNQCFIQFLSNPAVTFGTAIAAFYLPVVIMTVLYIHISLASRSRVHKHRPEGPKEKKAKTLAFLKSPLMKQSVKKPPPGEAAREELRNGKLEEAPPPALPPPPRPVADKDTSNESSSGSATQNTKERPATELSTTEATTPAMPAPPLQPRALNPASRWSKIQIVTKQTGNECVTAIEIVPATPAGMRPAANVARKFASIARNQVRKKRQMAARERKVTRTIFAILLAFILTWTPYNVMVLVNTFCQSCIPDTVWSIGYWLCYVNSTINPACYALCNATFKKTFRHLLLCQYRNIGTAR
Procedure: as §1, §2, §3

Row | Compound | M2 EC50 [1] | pEC50 [2] | Emax [2] [%] | pEC50 [1] | activation at 10 µM [1] [%] | M2 % RE [1] [%]
1 | CCOC(=O)N1CCC(N2CCC(c3nc(OC)cc(OC)n3)CC2)CC1 [Example 37, Ethyl 4-[4-(4,6-dimethoxypyrimidin-2-yl)piperidin-1-yl]piperidine-1-carboxylate] | No Response | 5.48 | 39 |  |  | 
2 | CCOC(=O)N1CCCC(N2CCC(c3cccnc3-c3ncco3)CC2)CC1 (stereo not shown) [Example 80, Ethyl 4-{4-[2-(1,3-oxazol-2-yl)pyridin-3-yl]piperidin-1-yl}azepane-1-carboxylate] | No Response | 6.07 | 43 |  |  | 
3 | CCOC(=O)N1CCCC(N2CCC(c3nccn3CC(=O)NC3CC3)CC2)CC1 (stereo not shown) [Example 19, Ethyl 4-(4-{1-[(cyclopropylcarbamoyl)methyl]-1H-imidazol-2-yl}piperidin-1-yl)azepane-1-carboxylate] | No Response | 5.82 | 64 |  |  | 
4 | CCOC(=O)N1CCCC(N2CCC(c3cncc(N(C)C)n3)CC2)CC1 (stereo not shown) [Example 50, Ethyl 4-{4-[6-(dimethylamino)pyrazin-2-yl]piperidin-1-yl}azepane-1-carboxylate] | No Response | 6.34 | 50 |  |  | 
5 | CCOC(=O)N1CCCC(N2CCC(c3cccn(C)c3=O)CC2)CC1 (stereo not shown) [Example 39, Ethyl 4-[4-(1-methyl-2-oxo-1,2-dihydropyridin-3-yl)piperidin-1-yl]azepane-1-carboxylate] | No Response | 6.13 | 41 |  |  | 
6 | CCOC(=O)N1CCCC(N2CCC(n3nccc3C(=O)NCC3CC3)CC2)CC1 (stereo not shown) [Example 24, Ethyl 4-(4-{5-[(cyclopropylmethyl)carbamoyl]-1H-pyrazol-1-yl}piperidin-1-yl)azepane-1-carboxylate] | No Response | 5.86 | 45 |  |  | 
7 | CCOC(=O)N1CCCC(N2CCC(c3ncccn3)CC2)CC1 (stereo not shown) [Example 74, Ethyl 4-[4-(pyrimidin-2-yl)piperidin-1-yl]azepane-1-carboxylate] |  | 5.98 | 61 | < 5.00 | 20 | 
8 | CCOC(=O)N1CCC(N2CCC(c3cccnc3OC)CC2)CC1 [Example 34, Ethyl 4-[4-(2-methoxypyridin-3-yl)piperidin-1-yl]piperidine-1-carboxylate] | No Response | 7.05 | 90 |  |  | 
9 | CCOC(=O)N1CCCC(N2CCC(n3cccc3)CC2)CC1 (stereo not shown) [Example 3, Ethyl 4-[4-(1H-pyrrol-1-yl)piperidin-1yl]azepane-1-carboxylate] |  | 6.48 | 59 | 5.81 |  | 38
10 | CCOC(=O)N1CCCC(N2CCC(n3cccn3)CC2)CC1 (stereo not shown) [Example 4, Ethyl 4-[4-(1H-pyrazol-1-yl)piperidin-1yl]azepane-1-carboxylate] | No Response | 6.85 | 74 |  |  | 
11 | CCOC(=O)N1CCCC(N2CCC(c3cccnc3OC)CC2)CC1 (stereo not shown) [Example 35, Ethyl 4-[4-(2-methoxypyridin-3-yl)piperidin-1-yl]azepane-1-carboxylate] | No Response | 7.52 | 102 |  |  | 
12 | CCOC(=O)N1CCCC(N2CCC(c3nnccc3OC)CC2)CC1 (stereo not shown) [Example 71, Ethyl 4-[4-(4-methoxypyridazin-3-yl)piperidin-1-yl]azepane-1-carboxylate] | No Response | 5.98 | 45 |  |  | 
13 | CCOC(=O)N1CCCC(N2CCC(c3cccnc3N(C)C)CC2)CC1 (stereo not shown) [Example 65, Ethyl 4-{4-[2-(dimethylamino)pyridin-3-yl]piperidin-1-yl}azepane-1-carboxylate] | No Response | 6.72 | 87 |  |  | 
14 | CCOC(=O)N1CCC(N2CCC(c3ccncc3)CC2)CC1 [Example 31, Ethyl 4-[4-(pyridin-4-yl)piperidin-1-yl]piperidine-1-carboxylate] | No Response | 5.65 | 30 |  |  | 
15 | CCOC(=O)N1CCCC(N2CCC(c3nccs3)CC2)CC1 (stereo not shown) [Example 26, Ethyl 4-[4-(1,3-thiazol-2-yl)piperidin-1-yl]azepane-1-carboxylate] | No Response | 6.89 | 51 |  |  | 
16 | CCOC(=O)N1CCCC(N2CCC(c3cccnc3OC(C)C)CC2)CC1 (stereo not shown) [Example 55, Ethyl 4-{4-[2-(propan-2-yloxy)pyridin-3-yl]piperidin-1-yl}azepane-1-carboxylate] |  | 6.89 | 67 | < 5.00 | 26 | 
17 | CCOC(=O)N1CCC(N2CCC(c3cccc(OCC)n3)CC2)CC1 [Example 72, Ethyl 4-[4-(6-ethoxypyridin-2-yl)piperidin-1-yl]piperidine-1-carboxylate] |  | 6.57 | 63 | 5.69 |  | 20
18 | CCCn1ccnc1C1CCN(C2CCCN(C(=O)OCC)CC2)CC1 (stereo not shown) [Example 11, Ethyl 4-[4-(1-propyl-1H-imidazol-2-yl)piperidin-1-yl]azepane-1-carboxylate] | No Response | 6.02 | 41 |  |  | 
19 | COC(=O)N1CCC(CN2CCC(n3nc(C)cc3C)C2)CC1 (stereo not shown) [Example 78, Methyl 4-{[3-(3,5-dimethyl-1H-pyrazol-1-yl)pyrrolidin-1-yl]methyl}piperidine-1-carboxylate] | No Response | 5.57 | 36 |  |  | 
20 | CCOC(=O)N1CCCC(N2CCC(c3ccnn3C)CC2)CC1 (stereo not shown) [Example 14, Ethyl 4-[4-(1-methyl-1H-pyrazol-5-yl)piperidin-1-yl]azepane-1-carboxylate] | No Response | 6.12 | 55 |  |  | 
21 | CCOC(=O)N1CCCC(N2CCC(c3cccnc3OCc3cscn3)CC2)CC1 (stereo not shown) [Example 76, Ethyl 4-{4-[2-(1,3-thiazol-4-ylmethoxy)pyridin-3-yl]piperidin-1-yl}azepane-1-carboxylate] | No Response | 7.66 | 84 |  |  | 
22 | CCOC(=O)N1CCCC(N2CCC(n3nccc3CNC(C)=O)CC2)CC1 (stereo not shown) [Example 28, Ethyl 4-{4-[5-(acetamidomethyl)-1H-pyrazol-1-yl]piperidin-1-yl}azepane-1-carboxylate] | No Response | 5.83 | 59 |  |  | 
23 | CCOC(=O)N1CCCC(N2CCC(c3cccnc3NC)CC2)CC1 (stereo not shown) [Example 62, Ethyl 4-{4-[2-(methylamino)pyridin-3-yl]piperidin-1-yl}azepane-1-carboxylate] | No Response | 6.44 | 53 |  |  | 
24 | CCOC(=O)N1CCC(CN2CC(n3cccn3)C2)CC1 [Example 29, Ethyl 4-{[3-(1H-pyrazol-1-yl)azetidin-1-yl]methyl}piperidine-1-carboxylate] | No Response | 5.74 | 29 |  |  | 
25 | CCOC(=O)N1CCCC(N2CCC(c3cccn(CC#N)c3=O)CC2)CC1 (stereo not shown) [Example 56, Ethyl 4-{4-[1-(cyanomethyl)-2-oxo-1,2-dihydropyridin-3-yl]piperidin-1-yl}azepane-1-carboxylate] | No Response | 5.63 | 24 |  |  | 
